Test results: patent US6518243B1, “Desleucyl glycopeptide antibiotics and methods of making same” (Trustees of Princeton University, priority 1999, dated 2003)

Assays:
E. faecium ATCC 49624 = assay: MIC determination in BHI media, OD600; assay type: cell-based; details: BHI + 0.1% casamino acids, 18 hours at 37° C., ≧90% OD600 inhibition
Procedure, shortened: (§1)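 MIC was judged per concentration from endpoint plate readings after an 18-hour incubation at 37° C, using log-phase inoculum at about 5×10^5 CFU/ml and test agents serially diluted in DMSO.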

E. faecalis ATCC 29212 = assay: MIC determination in BHI media, OD600; assay type: cell-based; details: BHI + 0.1% casamino acids, 18 hours at 37° C., ≧90% OD600 inhibition
Procedure, shortened: as §1

S aureus ATCC 29213 = assay: MIC determination in BHI media, OD600; assay type: cell-based; details: BHI + 0.1% casamino acids, 18 hours at 37° C., ≧90% OD600 inhibition
Procedure, shortened: as §1

S. Aureus ATCC 33591 = assay: MIC determination in BHI media, OD600; assay type: cell-based; details: BHI + 0.1% casamino acids, 18 hours at 37° C., ≧90% OD600 inhibition
Procedure, shortened: as §1

E. faceium (ATCC 49624) = assay: Zone of inhibition screen, 96 well agar array format;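 further: score 3 means fourfold and score 4 sixteenfold the reference zone size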; assay type: cell-based, E. faecium; details: zone of inhibition relative to 1 mg/ml stock solution of p-chlorobiphenylvancomycin
Protocol: The antibacterial activity of each of the compounds against the bacterial strains E. faceium (ATCC 49624), S. epidermidis (ATCC 12228), S. aureus (ATCC 29213), E. faecalis (CL 4877) and E. faecalis (ATCC 292121) was tested. Each of the compounds was screened in a 96 will agar array format.

E. faecium CL 4931 = assay: MIC determination in BHI media, OD600; assay type: cell-based; details: BHI + 0.1% casamino acids, 18 hours at 37° C., ≧90% OD600 inhibition
Procedure, shortened: as §1

[1] = system: S. epidermidis (ATCC 12228); assay: Zone of inhibition screen, 96 well agar array format; assay type: cell-based; design: scale not given here; details: zone of inhibition relative to 1 mg/ml stock solution of p-chlorobiphenylvancomycin
Procedure, shortened: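 Antibacterial testing on a 96-well agar array; each compound screened separately.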

MIC E. faecium ATCC 49624 (E. faecium ATCC 49624) [µg/mL] | MIC E. faecalis ATCC 29212 (E. faecalis ATCC 29212) [µg/mL] | MIC S. aureus ATCC 29213 (S aureus ATCC 29213) [µg/mL] | MIC S. aureus ATCC 33591 (S. Aureus ATCC 33591) [µg/mL] | MIC E. faecium CL 4931 (E. faecium CL 4931) [µg/mL] | SMILES | zone score, E. faecium ATCC 49624 (E. faceium (ATCC 49624)) | zone score, S. epidermidis ATCC 12228 [1]
0.062 | 0.25 | 0.12 | 0.12 |  | CCCC(N)C(=O)NC1C(=O)NC(CC(N)=O)C(=O)NC2C(=O)NC3C(=O)NC(C(=O)NC(C(=O)O)c4cc(O)cc(O)c4-c4cc3ccc4O)C(O)c3ccc(c(Cl)c3)Oc3cc2cc(c3OC2OC(CO)C(O)C(O)C2OC2CC(C)(NCc3ccc(-c4ccc(Cl)cc4)cc3)C(O)C(C)O2)Oc2ccc(cc2Cl)C1O (centres unmarked) [Compound 337] |  | 
0.39 |  | 0.78 | 0.78 | 25 | CC1OC(OC2C(Oc3c4cc5cc3Oc3ccc(cc3Cl)C(O)C3NC(=O)C(NC(=O)C5NC(=O)C(CC(N)=O)NC(=O)C(NC(=O)C(N)CCS(C)(=O)=O)C(O)c5ccc(c(Cl)c5)O4)c4ccc(O)c(c4)-c4c(O)cc(O)cc4C(C(=O)O)NC3=O)OC(CO)C(O)C2O)CC(C)(NCc2ccc(-c3ccc(Cl)cc3)cc2)C1O (centres unmarked) [Compound 82] | 2 | 
0.12 | 0.39 | 0.25 | 0.25 |  | CNC(C(=O)NC1C(=O)NC(CC(N)=O)C(=O)NC2C(=O)NC3C(=O)NC(C(=O)NC(C(=O)O)c4cc(O)cc(O)c4-c4cc3ccc4O)C(O)c3ccc(c(Cl)c3)Oc3cc2cc(c3OC2OC(CO)C(O)C(O)C2OC2CC(C)(NCc3ccc(-c4ccc(Cl)cc4)cc3)C(O)C(C)O2)Oc2ccc(cc2Cl)C1O)C(C)C (centres unmarked) [Compound 328] |  | 
0.12 | 0.25 | 0.25 | 0.25 |  | CC(C)C(N)C(=O)NC1C(=O)NC(CC(N)=O)C(=O)NC2C(=O)NC3C(=O)NC(C(=O)NC(C(=O)O)c4cc(O)cc(O)c4-c4cc3ccc4O)C(O)c3ccc(c(Cl)c3)Oc3cc2cc(c3OC2OC(CO)C(O)C(O)C2OC2CC(C)(NCc3ccc(-c4ccc(Cl)cc4)cc3)C(O)C(C)O2)Oc2ccc(cc2Cl)C1O (centres unmarked) [Compound 339] |  | 
0.78 |  | 0.78 |  | 25 | CC1OC(OC2C(Oc3c4cc5cc3Oc3ccc(cc3Cl)C(O)C3NC(=O)C(NC(=O)C5NC(=O)C(CC(N)=O)NC(=O)C(NC(=O)CN5CCNCC5)C(O)c5ccc(c(Cl)c5)O4)c4ccc(O)c(c4)-c4c(O)cc(O)cc4C(C(=O)O)NC3=O)OC(CO)C(O)C2O)CC(C)(NCc2ccc(-c3ccc(Cl)cc3)cc2)C1O (centres unmarked) [Compound 34] | 2 | 
0.12 | 0.78 | 0.78 | 0.78 |  | CC1OC(OC2C(Oc3c4cc5cc3Oc3ccc(cc3Cl)C(O)C3NC(=O)C(NC(=O)C5NC(=O)C(CC(N)=O)NC(=O)C(NC(=O)C(N)COC(C)(C)C)C(O)c5ccc(c(Cl)c5)O4)c4ccc(O)c(c4)-c4c(O)cc(O)cc4C(C(=O)O)NC3=O)OC(CN)C(O)C2O)CC(C)(NCc2ccc(-c3ccc(Cl)cc3)cc2)C1O (centres unmarked) [Compound 521] |  | 

SMILES | MIC E. faecium ATCC 49624 (E. faecium ATCC 49624) [µg/mL] | MIC E. faecalis ATCC 29212 (E. faecalis ATCC 29212) [µg/mL] | MIC S. aureus ATCC 29213 (S aureus ATCC 29213) [µg/mL] | MIC S. aureus ATCC 33591 (S. Aureus ATCC 33591) [µg/mL] | MIC E. faecium CL 4931 (E. faecium CL 4931) [µg/mL] | zone score, E. faecium ATCC 49624 (E. faceium (ATCC 49624)) | zone score, S. epidermidis ATCC 12228 [1]
CNC(CC(C)C)C(=O)NC1C(=O)NC(CC(N)=O)C(=O)NC2C(=O)NC3C(=O)NC(C(=O)NC(C(=O)O)c4cc(O)cc(O)c4-c4cc3ccc4O)C(O)c3ccc(c(Cl)c3)Oc3cc2cc(c3OC2OC(CO)C(O)C(O)C2OC2CC(C)(NCc3ccc(-c4ccc(Cl)cc4)cc3)C(O)C(C)O2)Oc2ccc(cc2Cl)C1O (centres unmarked) [Compound 517, Cl-Biphenyl Vancomycin, reference compound] | 0.062 | 0.25 | 0.25 | 0.25 |  |  | 
CNC(CC(C)C)C(=O)NC1C(=O)NC(CC(N)=O)C(=O)NC2C(=O)NC3C(=O)NC(C(=O)NC(C(=O)O)c4cc(O)cc(O)c4-c4cc3ccc4O)C(O)c3ccc(c(Cl)c3)Oc3cc2cc(c3OC2OC(CO)C(O)C(O)C2OC2CC(C)(NCc3ccc(-c4ccc(Cl)cc4)cc3)C(O)C(C)O2)Oc2ccc(cc2Cl)C1O (centres unmarked) [Compound 329] | 0.031 | 0.12 | 0.25 | 0.12 |  |  | 
CC1OC(OC2C(Oc3c4cc5cc3Oc3ccc(cc3Cl)C(O)C3NC(=O)C(NC(=O)C5NC(=O)C(CC(N)=O)NC(=O)C(NC(=O)C(CCC(N)=O)NC(=O)OC(C)(C)C)C(O)c5ccc(c(Cl)c5)O4)c4ccc(O)c(c4)-c4c(O)cc(O)cc4C(C(=O)O)NC3=O)OC(CO)C(O)C2O)CC(C)(NCc2ccc(-c3ccc(Cl)cc3)cc2)C1O (centres unmarked) [Compound 136] | 0.78 |  | 0.78 | 0.78 | > 25 |  | 2
